What was measured:
[1] = Stability in organic medium (dimethyl sulfoxide) by UV-Vis spectroscopy; type: physicochemical; conditions: for Relative variation of the maximum absorbance of the π→π* transitions: band 289-300 nm (λmax in column head); for Relative variation of the maximum absorbance of the charge transfer bands: band 357-425 nm (λmax in column head)
How it was run: (§1)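 UV-Vis spectra (270-900 nm) were recorded at intervals from 0 to 24 h, at room temperature in the dark. Solvents were 100% DMSO, or 5% or 10% DMSO in DMEM depending on complex, at 7.0×10^-5 M to 3.0×10^-4 M.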

MDA-MB-231 (FGFR−) = assay: MTT cytotoxicity assay; conditions: MDA-MB-231
Protocol: By way of example, the in vitro cytotoxicity of the conjugate RuPC1, complex 4 and peptide P2 was determined in four human breast cancer cell lines with different levels of expression of the receptor FGFR, namely MDA-MB-231 (FGFR−), MCF-7 (FGFR−), SK-BR-3 (FGFR+), and MDA-MB-134-VI (FGFR+). The cytotoxicity of RuPC1 was also determined in the stated cell lines at controlled pH 6.8 and 7.4. The cytotoxicity of the complexes 5, 8, 9, and the reference complex (2,2′-bipyridyl)(triphenylphosphane)(f-cyclopentadienyl)ruthenium(II) trifluoromethanesulfonate, [RuCp(PPh3)(bipy)][CF3SO3] (TM34) was only determined in the cell line MDA-MB-231. All the cell lines were from the American Type Culture Collection (ATCC) and were cultured in Dulbecco's Modified Eagle Medium+Glutamax-I (Gibco) supplemented with 10% fetal bovine serum (FBS) and 1% antibiotics, excepting the MDA-MB-134-VI for which it was used the double amount of FBS. The cell cultures were kept in an incubator Heraeus at 37° C. under humidified atmosphere at 5% CO2. The cell viability was evaluated resorting to the MTT ([3-(4,5-dimethylthiazol-2-yl)-2,5-diphenyltetrazolium bromide]) colorimetric assay, which is based on the reduction of the tetrazolium salt to purple formazan by mitochondrial dehydrogenases in metabolically active cells. For the assays, the cells were seeded in 96-well plates (2×10^4 to 3×10^4 cells/200 μL) and allowed to adhere overnight. The compounds were first dissolved in dimethyl sulfoxide to obtain 10 mM stock solutions, further used to prepare the working solutions, at 0.1 to 100 μM, by dilution in the cell culture medium. Alternatively, for the assays at controlled pH 6.8 and 7.4, RuPC1 was first dissolved in a solution of 15% dimethyl sulfoxide/85% phosphate buffer (10 mM in water) to obtain 1.5 mM stock solutions further incubated for 48 hours at both pH values prior to be used to prepare the working solutions, at 0.1 to 50 μM, by dilution in the cell culture medium. In both cases, after continuous exposure of the cells to the compounds for 48 h at 37° C., the medium was removed and the cells were incubated with 200 μL of MTT solution (0.5 mg/mL) for 3 h. Then, the solution was discarded and the purple formazan formed by the viable cells was dissolved in 200 μL of dimethyl sulfoxide. The cell viability (%) was determined relative to the control (cells incubated without compounds) by measuring the absorbance at 570 nm on a PowerWave Xs Bio-Tek Instruments plate spectrophotometer. The respective values of the half maximal inhibitory concentration (IC50) were calculated with the software GraphPad Prism. All the compounds were tested in at least two independent experiments, each comprising six replicates per concentration.

[2] = Stability in aqueous medium (dimethyl sulfoxide/Dulbecco's Modified Eagle Medium) by UV-Vis spectroscopy; type: physicochemical; conditions: 5% dimethyl sulfoxide/95% Dulbecco's Modified Eagle Medium; for Relative variation of the maximum absorbance of the π→π* transitions: band 292-296 nm (λmax in column head); for Relative variation of the maximum absorbance of the charge transfer bands: band 358-400 nm (λmax in column head)
How it was run: as §1

## CC(=O)C1=C[CH]([Ru-]2([PH](c3ccccc3)(c3ccccc3)c3ccccc3)[n+]3ccccc3-c3cccc[n+]32)C=C1.O=S(=O)([O-])C(F)(F)F (stereo not shown) [compound 5]
[1]; time 0 h
  Relative variation of the maximum absorbance of the π→π* transitions: 0.0%
  Relative variation of the maximum absorbance of the charge transfer bands: 0.0%
[1]; time 0.25 h
  Relative variation of the maximum absorbance of the π→π* transitions: 0.3%
  Relative variation of the maximum absorbance of the charge transfer bands: 0.1%
[1]; time 0.5 h
  Relative variation of the maximum absorbance of the π→π* transitions: −0.5%
  Relative variation of the maximum absorbance of the charge transfer bands: 0.0%
[1]; time 0.75 h
  Relative variation of the maximum absorbance of the π→π* transitions: −0.4%
  Relative variation of the maximum absorbance of the charge transfer bands: 0.2%
[1]; time 1 h
  Relative variation of the maximum absorbance of the π→π* transitions: −0.3%
  Relative variation of the maximum absorbance of the charge transfer bands: 0.1%
[1]; time 2 h
  Relative variation of the maximum absorbance of the π→π* transitions: −0.9%
  Relative variation of the maximum absorbance of the charge transfer bands: 0.3%
[1]; time 3 h
  Relative variation of the maximum absorbance of the π→π* transitions: −1.2%
  Relative variation of the maximum absorbance of the charge transfer bands: 0.3%
[1]; time 4 h
  Relative variation of the maximum absorbance of the π→π* transitions: −1.2%
  Relative variation of the maximum absorbance of the charge transfer bands: 0.3%
[1]; time 5 h
  Relative variation of the maximum absorbance of the π→π* transitions: −1.5%
  Relative variation of the maximum absorbance of the charge transfer bands: 0.5%
[1]; time 6 h
  Relative variation of the maximum absorbance of the π→π* transitions: −1.5%
  Relative variation of the maximum absorbance of the charge transfer bands: 0.2%
[1]; time 24 h
  Relative variation of the maximum absorbance of the π→π* transitions: −1.9%
  Relative variation of the maximum absorbance of the charge transfer bands: 0.3%
MDA-MB-231 (FGFR−); Example 24
  IC50 range in words: sub-micromolar range
MDA-MB-231 (FGFR−); read-out: Cytotoxic activity expressed as IC50, Table 5, 48 h, 37° C.
  IC50: 360 nM
[2]; time 0 h
  Relative variation of the maximum absorbance of the π→π* transitions: 0.0%
  Relative variation of the maximum absorbance of the charge transfer bands: 0.0%
[2]; time 0.25 h
  Relative variation of the maximum absorbance of the π→π* transitions: 0.6%
  Relative variation of the maximum absorbance of the charge transfer bands: −1.0%
[2]; time 0.5 h
  Relative variation of the maximum absorbance of the π→π* transitions: −0.1%
  Relative variation of the maximum absorbance of the charge transfer bands: −2.1%
[2]; time 0.75 h
  Relative variation of the maximum absorbance of the π→π* transitions: 0.3%
  Relative variation of the maximum absorbance of the charge transfer bands: −2.7%
[2]; time 1 h
  Relative variation of the maximum absorbance of the π→π* transitions: 0.0%
  Relative variation of the maximum absorbance of the charge transfer bands: −3.4%
[2]; time 2 h
  Relative variation of the maximum absorbance of the π→π* transitions: 1.0%
  Relative variation of the maximum absorbance of the charge transfer bands: −1.2%
[2]; time 3 h
  Relative variation of the maximum absorbance of the π→π* transitions: 0.7%
  Relative variation of the maximum absorbance of the charge transfer bands: −3.4%
[2]; time 4 h
  Relative variation of the maximum absorbance of the π→π* transitions: 0.7%
  Relative variation of the maximum absorbance of the charge transfer bands: −4.1%
[2]; time 5 h
  Relative variation of the maximum absorbance of the π→π* transitions: 0.7%
  Relative variation of the maximum absorbance of the charge transfer bands: −5.1%
[2]; time 6 h
  Relative variation of the maximum absorbance of the π→π* transitions: 2.1%
  Relative variation of the maximum absorbance of the charge transfer bands: 0.3%
[2]; time 24 h
  Relative variation of the maximum absorbance of the π→π* transitions: −1.8%
  Relative variation of the maximum absorbance of the charge transfer bands: −3.0%

Reference: US20250195463A1, “ORGANOMETALLIC COMPLEX, CONTROLLED-RELEASE MULTI-FUNCTIONAL DRUG, PHARMACEUTICAL COMPOSITION, PROCESSES FOR THE PREPARATION THEREOF AND THEIR USE” (FACULDADE DE CIÊNCIAS DA UNIVERSIDADE DE LISBOA, priority 2022, published 2025)
